Results from PubChem BioAssay (NCI).
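Method: 48-hour compound exposure of cells in 96-well plates, five concentrations, linear interpolation of endpoints. TGI marks complete inhibition of growth.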

What was measured:
Assay in all cases: DTP human tumour cell line panel, 48 h
A498 renal = system: A498 renal
SF-268 CNS = system: SF-268 CNS
M14 melanoma = system: M14 melanoma
EKVX NSCLC = system: EKVX NSCLC
SN12C renal = system: SN12C renal
RPMI-8226 leukemia = system: RPMI-8226 leukemia
HS 578T breast = system: HS 578T breast
PC-3 prostate = system: PC-3 prostate
MCF7 breast = system: MCF7 breast
HL-60(TB) leukemia = system: HL-60(TB) leukemia
SK-MEL-2 melanoma = system: SK-MEL-2 melanoma
CCRF-CEM leukemia = system: CCRF-CEM leukemia
BT-549 breast = system: BT-549 breast
HCT-116 colon = system: HCT-116 colon
UACC-257 melanoma = system: UACC-257 melanoma
TK-10 renal = system: TK-10 renal
IGROV1 ovarian = system: IGROV1 ovarian
COLO 205 colon = system: COLO 205 colon
OVCAR-4 ovarian = system: OVCAR-4 ovarian
A549 NSCLC = system: A549 NSCLC
SK-MEL-28 melanoma = system: SK-MEL-28 melanoma
ACHN renal = system: ACHN renal
U251 CNS = system: U251 CNS
SW-620 colon = system: SW-620 colon
KM12 colon = system: KM12 colon
NCI-H460 lung = system: NCI-H460 lung
HOP-92 NSCLC = system: HOP-92 NSCLC
NCI-H522 lung = system: NCI-H522 lung
LOX IMVI melanoma = system: LOX IMVI melanoma
NCI-H23 lung = system: NCI-H23 lung
MOLT-4 leukemia = system: MOLT-4 leukemia
DU-145 prostate = system: DU-145 prostate
HT29 colon = system: HT29 colon
UO-31 renal = system: UO-31 renal
HCC-2998 colon = system: HCC-2998 colon
K-562 leukemia = system: K-562 leukemia
NCI/ADR-RES ovarian = system: NCI/ADR-RES ovarian
786-0 renal = system: 786-0 renal
SNB-19 CNS = system: SNB-19 CNS
SK-MEL-5 melanoma = system: SK-MEL-5 melanoma
SF-539 CNS = system: SF-539 CNS
UACC-62 melanoma = system: UACC-62 melanoma
NCI-H226 lung = system: NCI-H226 lung
MALME-3M melanoma = system: MALME-3M melanoma
T-47D breast = system: T-47D breast
CAKI-1 renal = system: CAKI-1 renal
OVCAR-8 ovarian = system: OVCAR-8 ovarian
SR leukemia = system: SR leukemia
MDA-MB-231 breast = system: MDA-MB-231 breast
HCT-15 colon = system: HCT-15 colon
MDA-N = system: MDA-N
RXF 393 renal = system: RXF 393 renal
OVCAR-5 ovarian = system: OVCAR-5 ovarian
MDA-MB-435 = system: MDA-MB-435
SNB-75 CNS = system: SNB-75 CNS
SF-295 CNS = system: SF-295 CNS
OVCAR-3 ovarian = system: OVCAR-3 ovarian
SK-OV-3 ovarian = system: SK-OV-3 ovarian
HOP-62 NSCLC = system: HOP-62 NSCLC

Measured: TGI

O=C1C(Cl)C2(CC(/C=C/c3cccs3)=NN2c2cccc(S(=O)(=O)O)c2)N1c1nc2ccccc2s1 (stereo not given)
23.8 µM: UO-31 renal
78.2 µM: CCRF-CEM leukemia
38.5 µM: NCI-H522 lung
not listed: SF-295 CNS | OVCAR-3 ovarian | SK-OV-3 ovarian | HOP-62 NSCLC
> 100 µM: all other assays above

COc1ccc(-c2cc(=O)c3c(O)cc(O)cc3o2)cc1OC
16.4 µM: HOP-92 NSCLC
37.1 µM: SNB-75 CNS
59.1 µM: NCI-H522 lung
45.2 µM: A498 renal
33.5 µM: SR leukemia
not listed: CAKI-1 renal | OVCAR-8 ovarian
> 100 µM: all other assays above

CCC(N)(C(=O)O)C(C)C (stereo not given)
not listed: MOLT-4 leukemia
> 100 µM: all other assays above
